Experiment in all cases: DTP human tumour cell line panel, 48 h
The subject of test [1] is SF-268.
In test [2] the test system is UACC-257.
Test [3] has as its system HL-60.
The subject of test [4] is CCRF-CEM.
For test [5], the system named is OVCAR-4.
The subject of test [6] is MOLT-4.
Test [7] has as its system SR.
Test [8] has as its system SF-539.
Test [9] has as its system SK-OV-3.
Test [10] relates to HCT-15.
The test system of test [11] is U-251.
Test [12] deals with TK-10.
In test [13] the test system is OVCAR-3.
Test [14] deals with SK-MEL-28.
Test [15] relates to DU-145.
Test [16] has as its system A498.
In test [17] the test system is OVCAR-8.
The subject of test [18] is MCF7.
Test [19] relates to SW-620.
The subject of test [20] is HCC 2998.

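Growth conditions: 96-well plates. Treatment: test compound, 48 hours, 5 concentrations. Analysis: linear interpolation between bracketing concentrations; unreached endpoints set to highest concentration. GI50 is the concentration that inhibits growth by half.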 Activity calls are given as the source filed them. No stated cut-off is given here; in the data, active = GI50 up to about 1.1 µM and inactive = higher.

Consider `CCOC(=O)C1Cc2c(cc3c4c(cccc24)N(C(C)=O)C3)N(C)C1` (stereo not given), for which the GI50 (usually the concentration at which growth is held to half of that of the control) was 5.86 µM (inactive) in test [1]; 39 µM (inactive) in [2]; 11.3 µM (inactive) in test [3]; 0.867 µM (active) in test [4]; 84.9 µM (inactive) in test [5]; 4.02 µM (inactive) in [6]. In addition, the GI50 in [7] is 41.6 µM (inactive); in test [8], 3.18 µM (inactive); in test [9], 71.8 µM (inactive); in test [10], > 100 µM; in [11] it was 4.93 µM (inactive); in test [12], > 100 µM (inactive). Besides, the GI50 is 1.44 µM (inactive) in test [13]; > 100 µM (inactive) in test [14]; > 100 µM (inactive) in [15]; > 100 µM (inactive) in test [16]; 3.97 µM (inactive) in [17]; 32.7 µM (inactive) in [18]. The values for the GI50 in [19] and in test [20] were 4.86 µM (inactive) and > 100 µM (inactive), respectively.
